Measured values: patent US8193160B2 (priority 2006, dated 2012)

Columns and labels:
[1] = test system: Magnaporthe vegetative mycelia, abc3Δ mutant; type: cell-based
abc3Δ mutant = type: cell-based, Magnaporthe grisea

Compound | Minimum Inhibitory Concentration (MIC), abc3Δ [1] | growth under oxidative stress (abc3Δ mutant)
CCCCNC(=O)n1c(NC(=O)OC)nc2ccccc21 [Benomyl] | 2 µg/mL | –
OC(Cn1cncn1)(Cn1cncn1)c1ccc(F)cc1F [Fluconazole] | 2500 µg/mL | –
Gramicidin D | 180 µg/mL | –
CC(C)[C@@H]1NC(=O)[C@H](C)OC(=O)[C@@H](C(C)C)NC(=O)[C@@H](C(C)C)OC(=O)[C@H](C(C)C)NC(=O)[C@H](C)OC(=O)[C@@H](C(C)C)NC(=O)[C@@H](C(C)C)OC(=O)[C@H](C(C)C)NC(=O)[C@H](C)OC(=O)[C@@H](C(C)C)NC(=O)[C@@H](C(C)C)OC1=O [Valinomycin] | 3 µg/mL | –
OO [hydrogen peroxide] | – | lethal
CCC(=C/[C@H](C)C/C=C/C(C)=C/[C@@H](C)C(=O)[C@@H](C)[C@H](O)[C@@H](C)C/C(C)=C/C(=O)O)/C=C/[C@@H]1OC(=O)C=C[C@@H]1C [Leptomycin B] | 0.0075 µg/mL | –
C[C@H]1CCC/C=C/[C@@H]2C[C@H](O)C[C@H]2[C@H](O)/C=C/C(=O)O1 [Brefeldin A] | 40 µg/mL | –
Actinomycin D | 3.5 µg/mL | –
